Results reported in ChEMBL document CHEMBL1777760, “Inhibition studies with anions and small molecules of two novel β-carbonic anhydrases from the bacterial pathogen Salmonella enterica serovar Typhimurium” (Bioorg Med Chem Lett, 2011).

Target: Carbonic anhydrase 1 (Homo sapiens, UniProt P00915)
Sequence (P00915 whole entry): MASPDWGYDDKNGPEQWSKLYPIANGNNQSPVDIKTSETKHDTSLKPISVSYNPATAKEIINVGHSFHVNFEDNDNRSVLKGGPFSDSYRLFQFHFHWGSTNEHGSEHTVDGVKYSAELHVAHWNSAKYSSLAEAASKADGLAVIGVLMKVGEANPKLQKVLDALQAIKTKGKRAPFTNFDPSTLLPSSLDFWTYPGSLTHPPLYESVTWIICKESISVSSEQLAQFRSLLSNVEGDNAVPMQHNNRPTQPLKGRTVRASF

CCN(CC)C(=S)S [DITIOCARB SODIUM]
Ki: 790 µM

NS(=O)(=O)O [SODIUM SULFIMIDATE]
Ki: 310 µM

F[B-](F)(F)F.[Na+] [SODIUM TETRAFLUOROBORATE]
Ki: > 200000 µM
